Article PMC10821025, “Bioprospection of Tenellins Produced by the Entomopathogenic Fungus Beauveria neobassiana” (Journal of Fungi, 2024)
In brackets after ≈: the same amount, converted by molar mass. Like-named read-outs stand apart in the source and are kept apart here. Values belong to the compound of their own block, whether it stands above or below them.

Legend:
[1] = tested on: Acinetobacter baumanii [DSM 30008]; experiment: Serial dilution assay (MIC); format: cell-based; conditions: Acinetobacter baumannii, DSM30008
Experimental: (§1) All isolated compounds were assessed for their antimicrobial activity using a serial dilution assay over a concentration range from 67 to 0.5 µg/mL following the previously described protocols. In brief, the antimicrobial activity of all isolated metabolites was assessed by determining their minimum inhibitory concentration (MIC) against a range of different pathogens, including five fungal species: Candida albicans [DSM 1665], Mucor hiemalis [DSM 2656], Schizosaccharomyces pombe [DSM 70572], Rhodotorula glutinis [DSM 10134], and Wickerhamomyces anomalus [DSM 6766], as well as various Gram-positive: Staphylococcus aureus [DSM 346], Bacillus subtilis [DSM 10], Mycolicibacterium smegmatis [ATCC 700084], and Gram-negative bacteria: Acinetobacter baumanii [DSM 30008], Escherichia coli [DSM 1116], Chromobacterium violaceum [DSM 30191], and Pseudomonas aeruginosa [PA14]. In our experiments, gentamicin served as the positive control against most bacteria, while nystatin acted as the positive control against all fungi. For specific microorganisms, namely A. baumannii, B. subtilis, and M. smegmatis, ciprofloxacin, oxytetracycline, and kanamycin were used as positive controls, respectively.

[2] = tested on: mouse fibroblasts (L-929); experiment: Cytotoxicity assay, L929; format: cell-based; conditions: L929 (fibroblast), 5 days of incubation
Experimental: (§2) The cytotoxicity of isolated compounds was determined as previously described over a concentration range between […] against two mammalian cell lines: mouse fibroblasts (L-929) and human endocervical adenocarcinoma (KB-3.1). […] Following 5 days of incubation, we determined the minimum concentration of the tested compounds required to achieve 50% growth inhibition, expressed as IC50 values.

[3] = tested on: human endocervical adenocarcinoma (KB-3.1); experiment: Cytotoxicity assay, KB3.1; format: cell-based; conditions: 5 days of incubation
Experimental: as §2

[4] = tested on: Bacillus subtilis [DSM 10]; experiment: Serial dilution assay (MIC); format: cell-based
Experimental: as §1

[5] = tested on: Candida albicans [DSM 1665]; experiment: Serial dilution assay (MIC); format: cell-based
Experimental: as §1

[6] = tested on: Escherichia coli [DSM 1116]; experiment: Serial dilution assay (MIC); format: cell-based
Experimental: as §1

[7] = tested on: Mucor hiemalis [DSM 2656]; experiment: Serial dilution assay (MIC); format: cell-based
Experimental: as §1

[8] = tested on: Mycolicibacterium smegmatis [ATCC 700084]; experiment: Serial dilution assay (MIC); format: cell-based; conditions: for MIC: Mycolicibacterium smegmatis, ATCC700084
Experimental: as §1

[9] = tested on: Pseudomonas aeruginosa [PA14]; experiment: Serial dilution assay (MIC); format: cell-based
Experimental: as §1

[10] = tested on: Staphylococcus aureus [DSM 346]; experiment: Serial dilution assay (MIC); format: cell-based
Experimental: as §1

[11] = tested on: S. aureus (DSM 1104) biofilm formation; experiment: Biofilm inhibition assay (Crystal Violet staining); format: cell-based, Staphylococcus aureus; conditions: for concentration below which biofilm inhibitory activity is lost: S. aureus biofilm, tested 125–7.8 µg/mL; for Biofilm inhibition (% ± SD): S. aureus (DSM 1104)
Experimental: The compounds were evaluated for their ability to inhibit S. aureus (DSM 1104) biofilm formation, following the established procedure. Briefly, serially diluted compounds (125–7.8 µg/mL) were co-incubated with S. aureus in 96-well plates in CASO medium supplemented with 4% of glucose (see Supplementary Materials). Biofilm inhibition was assessed by using Crystal Violet staining after […], with microporenic acid A serving as a positive control and methanol as solvent control.
Biofilm inhibition assays were condu cted acco rding to th e methodolo g y previousl y described (Soliga et al., 2021), targeting the inhibition of biofilm formation in Staphylococcus aureus […]
S. aureus were cultured i n LB and CASO medium at 37 °C for 18 h, respect ivel y, in a shaker at 120 rpm after being thawed from a -20 °C stock solution. The culture's optical densit y at 600 nm (OD600) was measured and adjusted to a 0.1 McFarland standard in M63 minimal medium supplemented with necessar y nutrients and CASO medi um with 4% glucose for S. aureus, respectively. Microtiter plates were loaded with 150 µL of the bacterial suspension containing s eriall y diluted test compounds (7.8 -125 µg/m L) and incubated for 24 h at 37 °C. The evaluation of biofilm inhibition was performed by staining the biofilm with 0.1% cr ystal violet (CV). After staining, the plates were washed, and the biofilm dissolved in 95% ethanol. The absorbance of the dissolved biofilm was measured at 530 nm using a plat e reader. Negative control involved methanol (2.5%) while microporenic acid A at a concentration range of 7.8 to 125 µg/mL were used as the positive control for S. aureus (Chepkirui et al., 2018). All experiments were performed three times, and the standard deviation (SD) was maintained at or below 15% for S. aureus .
Differences between sam ples and the control grou p were determined b y a t wo-tailed Student’s t-test. Statistical significan ce was defined as p < 0.01. Anal ysis was carri ed out using GraphPad Prism 9® (GraphPad Software, San Diego, CA, USA). […]

[12] = tested on: Chromobacterium violaceum [DSM 30191]; experiment: Serial dilution assay (MIC); format: cell-based
Experimental: as §1

[13] = tested on: lung cancer (A-549) cell line; experiment: Cytotoxicity assay, A549; format: cell-based; conditions: Homo sapiens
[14] = tested on: breast cancer (MCF-7) cell line; experiment: Cytotoxicity assay, MCF-7; format: cell-based; conditions: Homo sapiens, MCF7, 120 h
[15] = tested on: Rhodotorula glutinis [DSM 10134]; experiment: Serial dilution assay (MIC); format: cell-based
Experimental: as §1

[16] = tested on: Schizosaccharomyces pombe [DSM 70572]; experiment: Serial dilution assay (MIC); format: cell-based
Experimental: as §1

[17] = tested on: Wickerhamomyces anomalus [DSM 6766]; experiment: Serial dilution assay (MIC); format: cell-based
Experimental: as §1

[18] = Homo sapiens, KB 3-1, 120 h, KB3.1 (endocervical adenocarcinoma)
[19] = KB3.1 (endocervical adenocarcinoma)
[20] = Staphylococcus aureus, DSM1104, read-out: Biofilm inhibition (% ± SD), S. aureus (DSM 1104), 62.5 µg/ml
[21] = Staphylococcus aureus, DSM1104, read-out: Biofilm inhibition (% ± SD), S. aureus (DSM 1104), 125 µg/ml

MIC [1]: 0.52 mg/L (≈ 1.57 µM)
Compound: O=C(O)c1cn(C2CC2)c2cc(N3CCNCC3)c(F)cc2c1=O [Ciprofloxacin, reference compound]

MIC ([4]; DSM10, read-out: MIC): > 67 mg/L | MIC ([5]; DSM1665, read-out: MIC): > 67 mg/L | MIC ([6]; DSM1116, read-out: MIC): > 67 mg/L | MIC ([7]; DSM2656, read-out: MIC): > 67 mg/L | MIC ([8]; Mycobacterium smegmatis, read-out: MIC): > 67 mg/L | MIC ([9]; read-out: MIC): > 67 mg/L | MIC ([10]; DSM346, read-out: MIC): > 67 mg/L
Compound: O=C(O)c1c(O)c(-c2ccc(O)cc2)cn(O)c1=O [Compound 1, Pretenellin C]
IC50 (µM) ([2]; listed as pretenellin C (1)): weak or no activity | IC50 ([2]; Mus musculus, L929, 120 h): > 37 mg/L | IC50 ([3]; Homo sapiens, KB 3-1, 120 h, KB3.1 (ovary)): > 37 mg/L | IC50 (µM) ([3]; KB3.1 (endocervical adenocarcinoma), listed as pretenellin C (1)): weak or no activity | concentration below which biofilm inhibitory activity is lost [11]: 31.3 µg/mL | inhibition at 31.25 µg/mL ([11]; Staphylococcus aureus, DSM1104, S. aureus (DSM 1104), 31.25 µg/ml, read-out: Biofilm inhibition (% ± SD)): 46 ± 9% | inhibition at 62.5 µg/mL ([11]; Staphylococcus aureus, DSM1104, S. aureus (DSM 1104), 62.5 µg/ml, read-out: Biofilm inhibition (% ± SD)): 63 ± 16% | inhibition at 125 µg/mL ([11]; Staphylococcus aureus, DSM1104, S. aureus (DSM 1104), 125 µg/ml, read-out: Biofilm inhibition (% ± SD)): 74 ± 5%

MIC ([12]; DSM30191, read-out: MIC): 1.7 mg/L (≈ 3.56 µM) | MIC ([6]; DSM1116, read-out: MIC): 0.42 mg/L (≈ 0.879 µM) | MIC ([9]; read-out: MIC): 0.21 mg/L (≈ 0.44 µM) | MIC ([10]; DSM346, read-out: MIC): 0.21 mg/L (≈ 0.44 µM)
Compound: CNC(C)C1CCC(N)C(OC2C(N)CC(N)C(OC3OCC(C)(O)C(NC)C3O)C2O)O1 (stereo not drawn) [Gentamycin, reference compound]

MIC (µg/mL) ([8]; Mycobacterium smegmatis): 1.70 ^K µg/mL
Compound: NC[C@H]1O[C@H](O[C@H]2[C@H](O)[C@@H](O[C@H]3O[C@H](CO)[C@@H](O)[C@H](N)[C@H]3O)[C@H](N)C[C@@H]2N)[C@H](O)[C@@H](O)[C@@H]1O [Kanymycin, reference compound]

MIC ([4]; DSM10, read-out: MIC): 16.6 mg/L (≈ 36.1 µM)
Compound: CN(C)[C@@H]1C(O)=C(C(N)=O)C(=O)[C@@]2(O)C(O)=C3C(=O)c4c(O)cccc4[C@@](C)(O)[C@H]3[C@H](O)[C@@H]12 [Oxytetracycline, reference compound]

More lines, now with the values behind:

Compound: CCC(C)/C=C(C)/C=C/C(=O)c1c(O)c(-c2ccc(O)cc2)c[nH]c1=O (stereo not drawn) [Compound 3, Pretenellin B]
IC50 (µM) [2]: weak or no activity | IC50 ([2]; Mus musculus, L929, 120 h): 48.2 µM | IC50 [3, 18]: 20.2 µM | IC50 (µM) [3, 19]: weak or no activity | MIC ([4]; DSM10): 66.6 mg/L (≈ 188 µM) | MIC ([5]; DSM1665): > 67 mg/L | MIC ([12]; DSM30191): > 67 mg/L | MIC ([6]; DSM1116): > 67 mg/L | MIC ([7]; DSM2656): > 67 mg/L | MIC [8]: > 67 mg/L | MIC [9]: > 67 mg/L | MIC ([10]; DSM346): 66.6 mg/L (≈ 188 µM) | inhibitory activity on S. aureus biofilm formation (in words) ([11]; 125–7.8 µg/mL): promising activities in a dose-dependent manner | Biofilm inhibition (% ± SD) ([11]; 7.8 µg/ml, listed as pretenellin B (3)): ca. 30% | inhibition at 7.8 µg/mL ([11]; Staphylococcus aureus, DSM1104, read-out: Biofilm inhibition (% ± SD), S. aureus (DSM 1104), 7.8 µg/ml): 37 ± 7% | inhibition at 15.62 µg/mL ([11]; Staphylococcus aureus, DSM1104, read-out: Biofilm inhibition (% ± SD), S. aureus (DSM 1104), 15.62 µg/ml): 52 ± 6% | inhibition at 31.25 µg/mL ([11]; Staphylococcus aureus, DSM1104, read-out: Biofilm inhibition (% ± SD), S. aureus (DSM 1104), 31.25 µg/ml): 79 ± 8% | inhibition at 62.5 µg/mL [11, 20]: 83 ± 6% | inhibition at 125 µg/mL [11, 21]: 83 ± 6%

Compound: CCC(/C=C(C)/C=C/C(=O)c1c(O)c(-c2ccc(O)cc2)c[nH]c1=O)CO (stereo not drawn) [Compound 6, Pyridovericin]
IC50 [2]: 5.7 µM | IC50 ([2]; Mus musculus, L929, 120 h): 4.9 to 6.8 µM | IC50 [3, 18]: 4.9 to 6.8 µM | IC50 [3, 19]: 4.9 µM | IC50 ([13]; 120 h, A549 (lung), 5 days of incubation, read-out: IC50): 24100 nM | IC50 ([14]; MCF-7 (breast), 5 days of incubation, read-out: IC50): 7300 nM | MIC ([4]; DSM10): 66.6 mg/L (≈ 180 µM) | MIC ([5]; DSM1665): > 67 mg/L | MIC ([6]; DSM1116): > 67 mg/L | MIC ([7]; DSM2656): > 67 mg/L | MIC [8]: > 67 mg/L | MIC [9]: > 67 mg/L | MIC ([10]; DSM346): 66.6 mg/L (≈ 180 µM) | concentration below which biofilm inhibitory activity is lost [11]: 62.5 µg/mL | inhibition at 62.5 µg/mL [11, 20]: 48 ± 5% | inhibition at 125 µg/mL [11, 21]: 64 ± 14%

Compound: C/C(=C\c1csc(C)n1)[C@@H]1C[C@@H]2O[C@]2(C)CCC[C@H](C)[C@H](O)[C@@H](C)C(=O)C(C)(C)[C@@H](O)CC(=O)O1 [Epothilone B, reference compound]
IC50 ([13]; A549, 120 h, read-out: IC50, Positive Control Epothilone B (nM)): 0.05 nM | IC50 ([14]; read-out: IC50, Positive Control Epothilone B (nM)): 0.07 nM

Compound: CC(C)=CCC/C(C)=C/CC/C(C)=C/CC/C(C)=C/CO[C@@H](C(=O)O)[C@H](CC(=O)O)C(=O)O [Microporenic acid A, reference compound]
Biofilm inhibition (% ± SD) ([11]; 7.8 µg/ml): 41 ± 9% | Biofilm inhibition (% ± SD) ([11]; 15.62 µg/ml): 70 ± 13% | Biofilm inhibition (% ± SD) ([11]; 31.25 µg/ml): 85 ± 1% | Biofilm inhibition (% ± SD) ([11]; 62.5 µg/ml): 84 ± 1% | Biofilm inhibition (% ± SD) ([11]; 125 µg/ml): 86 ± 0%

Compound: C[C@@H]1[C@H](O)[C@@H](C)/C=C/C=C/CC/C=C/C=C/C=C/C=C/C(O[C@H]2O[C@H](C)[C@@H](O)[C@H](N)[C@@H]2O)CC2O[C@](O)(CC(O)C(O)CCC(O)CC(O)CC(O)CC(=O)O[C@H]1C)CC(O)C2C(=O)O (stereo partly drawn) [Nystatin, reference compound]
MIC (µg/mL) [5]: 8.3 ^N µg/mL | MIC (µg/mL) [7]: 8.30 ^N µg/mL | MIC (µg/mL) [15]: 4.20 ^N µg/mL | MIC (µg/mL) [16]: 4.20 ^N µg/mL | MIC (µg/mL) [17]: 16.6 ^N µg/mL
